{"source": "patent US8937180B2", "about": "“Method for preparing a polymer conjugate” (Nektar Therapeutics, priority 2006, dated 2015)", "key": {"[1]": {"experiment": "Maximum tolerated dose in tumor-bearing athymic nude mice", "conditions": "mouse, in vivo, intravenous"}, "[2]": {"test_system": "DU-145 prostate tumors", "experiment": "Anti-tumor activity in mice implanted with DU-145 prostate tumors", "conditions": "two doses (q7d×2), FIG. 2"}}, "data": [{"compound": "CC(=O)O[C@@]12CO[C@@H]1C[C@H](O)[C@@]1(C)C(=O)[C@H](O)C3=C(C)[C@@H](OC(=O)[C@H](O)[C@@H](NC(=O)OC(C)(C)C)c4ccccc4)C[C@@](O)([C@@H](OC(=O)c4ccccc4)[C@H]21)C3(C)C", "note": "[docetaxel, Docetaxel]", "values": [{"measurement": "MTD at 78 day", "setting": "[1]; athymic nude, mice with DU-145 prostate tumors", "result": "≤ 30", "unit": "mg/kg"}, {"measurement": "MTD", "setting": "[1]; athymic nude mice, H460 NSCLC tumors, 2nd study", "result": "≤ 30", "unit": "mg/kg"}, {"measurement": "anti-tumor effect on tumor growth", "setting": "[2]; 3 doses tested, 78 day observation period", "result": "good activity"}, {"measurement": "time after which tumors recover and grow", "setting": "[2]", "result": "30 to 50", "unit": "days"}]}]}
